Drawing on patent US5438052A, “Cephalosporin derivatives” (Hoffmann-La Roche Inc., priority 1991, dated 1995), this text covers MIC for three molecules.

In brackets after ≈: the same amount, converted by molar mass.

Common to all, as to test: Minimum inhibitory concentration in vitro, agar dilution method
Common to all, as to assay type: cell-based

For one assay, the system named is C. freundii 902. The note with it: Citrobacter freundii; C. freundii 902, agar dilution; read-out: MIC. The source says: (§1) 1. Minimum Inhibitory Concentration in vitro
(§2) The activities ascertained, minimum inhibitory concentration (MIC) in μg/ml, are compiled in Table 1 hereinafter: […]
In general terms: In agar dilution, organisms are placed on agar that contains the substance at set levels.

Another assay deals with E. aerogenes CF153. The note with it: Klebsiella aerogenes; E. aerogenes CF153, agar dilution; read-out: MIC.
Description: as §1, §2

For the next assay, the system named is E. cloacae 908R. The note with it: Enterobacter cloacae; E. cloacae 908R, agar dilution; read-out: MIC.
Description: as §1, §2

Another assay concerns E. cloacae 908SSi. Conditions: Enterobacter cloacae; E. cloacae 908SSi, agar dilution; read-out: MIC.
Description: as §1, §2

The subject of the next assay is E. cloacae P99. Conditions: Enterobacter cloacae.
Description: as §1, §2

The next assay deals with E. coli 25922. The note with it: Escherichia coli; E. coli 25922, agar dilution; read-out: MIC.
Description: as §1, §2

A further assay deals with K. oxytoca 1082. Conditions: Klebsiella oxytoca; K. oxytoca 1082, agar dilution; read-out: MIC.
Description: as §1, §2

Another assay deals with K. pneumoniae 418. Conditions: Klebsiella pneumoniae; K. pneumoniae 418, agar dilution; read-out: MIC.
Description: as §1, §2

The test system of the next assay is P. aeruginosa 27853. The note with it: Pseudomonas aeruginosa; P. aeruginosa 27853, agar dilution; read-out: MIC.
Description: as §1, §2

The next assay has as its system P. aeruginosa 799/61. The note with it: Pseudomonas aeruginosa; P. aeruginosa 799/61, agar dilution; read-out: MIC.
Description: as §1, §2

A further assay deals with P. aeruginosa 799/WT. The note with it: Pseudomonas aeruginosa; P. aeruginosa 799/WT, agar dilution; read-out: MIC.
Description: as §1, §2

In another assay the test system is P. aeruginosa BA. The note with it: Pseudomonas aeruginosa; P. aeruginosa BA, agar dilution; read-out: MIC.
Description: as §1, §2

The subject of a further assay is P. aeruginosa MK1184. Conditions: Pseudomonas aeruginosa; P. aeruginosa MK1184, agar dilution; read-out: MIC.
Description: as §1, §2

For another assay, the system named is P. mirabilis 2117. Conditions: Proteus mirabilis; P. mirabilis 2117, agar dilution; read-out: MIC.
Description: as §1, §2

In the next assay the test system is P. vulgaris 1028. The note with it: Proteus vulgaris; P. vulgaris 1028, agar dilution; read-out: MIC.
Description: as §1, §2

The test system of a further assay is S. aureus 6538. The note with it: Staphylococcus aureus; S. aureus 6538, agar dilution; read-out: MIC.
Description: as §1, §2

For a further assay, the system named is S. marcescens 69438. The note with it: Serratia marcescens; S. marcescens 69438, agar dilution; read-out: MIC.
Description: as §1, §2

A further assay deals with S. pyogenes 15. Conditions: Streptococcus pyogenes; S. pyogenes 15, agar dilution; read-out: MIC.
Description: as §1, §2

Broadly, the MIC is the least concentration at which growth counts as inhibited. As for `CC(C)(O/N=C(\C(=O)N[C@@H]1C(=O)N2C(C(=O)O)=C(CSc3ncncc3-c3ccc(O)c(O)c3)CS[C@H]12)c1csc(N)n1)C(=O)NO` [Example 19a, (6R,7R)-7-[(Z)-2-(2-amino-4-thiazolyl)-2-[[1-(hydroxycarbamoyl)-1-methylethoxy]imino]acetamido]-3-[[[5-(3,4-dihydroxyphenyl)-4-pyrimidinyl]thio]methyl]-8-oxo-5-thia-1-azabicyclo[4.2.0]oct-2-ene-2-carboxylic acid], the MIC in the assay on C. freundii 902 is 0.25 mg/L (≈ 0.356 µM); in the assay on E. aerogenes CF153, 0.12 mg/L (≈ 0.171 µM); with E. cloacae 908R it was 16 mg/L (≈ 22.8 µM); in the assay on E. cloacae 908SSi, 2 mg/L (≈ 2.85 µM); with E. cloacae P99 it was 16 mg/L (≈ 22.8 µM); in the assay with E. coli 25922, less than 0.1 mg/L. In addition, the minimal inhibitory concentration (MIC) with K. oxytoca 1082 is 1 mg/L (≈ 1.42 µM); with K. pneumoniae 418 it was less than 0.1 mg/L; in the assay on P. aeruginosa 27853, 2 mg/L (≈ 2.85 µM); with P. aeruginosa 799/61, less than 0.1 mg/L; in the assay on P. aeruginosa 799/WT, 0.25 mg/L (≈ 0.356 µM); in the assay on P. aeruginosa BA, 1 mg/L (≈ 1.42 µM). Moreover, the MIC with P. aeruginosa MK1184 worked out at 16 mg/L (≈ 22.8 µM); in the assay on P. mirabilis 2117, 0.25 mg/L (≈ 0.356 µM); in the assay with P. vulgaris 1028 it was 0.12 mg/L (≈ 0.171 µM); with S. aureus 6538, 16 mg/L (≈ 22.8 µM); in the assay with S. marcescens 69438, 0.12 mg/L (≈ 0.171 µM); with S. pyogenes 15, 0.5 mg/L (≈ 0.711 µM).

As for `Nc1nc(/C(=N/OCc2cc(Cl)c(O)c(O)c2Cl)C(=O)N[C@@H]2C(=O)N3C(C(=O)O)=C(CSc4nc(-c5ccccc5)ncc4-c4ccc(O)c(O)c4)CS[C@H]23)cs1` [Example 18, (6R,7R)-7-[(Z)-2-(2-amino-4-thiazolyl)-2-[[(2,5-dichloro-3,4-dihydroxybenzyl)oxy]imino]acetamido]-3-[[[5-(3,4-dihydroxyphenyl)-2-phenyl-4-pyrimidinyl]thio]methyl]-8-oxo-5-thia-1-azabicyclo[4.2.0]oct-2-ene-2-carboxylic acid], the MIC was 0.12 mg/L (≈ 0.138 µM) in the assay with C. freundii 902; 0.12 mg/L (≈ 0.138 µM) in the assay with E. aerogenes CF153; 2 mg/L (≈ 2.3 µM) with E. cloacae 908R; 8 mg/L (≈ 9.21 µM) in the assay with E. cloacae 908SSi; 16 mg/L (≈ 18.4 µM) against E. cloacae P99; 0.12 mg/L (≈ 0.138 µM) in the assay on E. coli 25922. Moreover, the MIC was 0.25 mg/L (≈ 0.288 µM) in the assay on K. oxytoca 1082; 0.12 mg/L (≈ 0.138 µM) in the assay with K. pneumoniae 418; 2 mg/L (≈ 2.3 µM) in the assay with P. aeruginosa 27853; less than 0.1 mg/L in the assay on P. aeruginosa 799/61; 0.12 mg/L (≈ 0.138 µM) with P. aeruginosa 799/WT; 1 mg/L (≈ 1.15 µM) with P. aeruginosa BA. In addition, the MIC is 2 mg/L (≈ 2.3 µM) with P. aeruginosa MK1184; less than 0.1 mg/L with P. mirabilis 2117; 0.12 mg/L (≈ 0.138 µM) with P. vulgaris 1028; more than 32 mg/L in the assay on S. aureus 6538; 1 mg/L (≈ 1.15 µM) in the assay on S. marcescens 69438; 1 mg/L (≈ 1.15 µM) with S. pyogenes 15.

Regarding `CC(C)(O/N=C(\C(=O)N[C@@H]1C(=O)N2C(C(=O)O)=C(CSc3nc(-c4ccccc4)ncc3-c3ccc(O)c(O)c3)CS[C@H]12)c1csc(N)n1)C(=O)NO` [Example 17, (6R,7R)-7-[(Z)-2-(2-amino-4-thiazolyl)-2-[[1-(hydroxycarbamoyl)-1-methylethoxy]imino]acetamido]-3-[[[5-(3,4-dihydroxyphenyl)-2-phenyl-4-pyrimidinyl]thio]methyl]-8-oxo-5-thia-1-azabicyclo[4.2.0]oct-2-ene-2-carboxylic acid], the MIC in the assay on C. freundii 902 is 0.5 mg/L (≈ 0.642 µM); in the assay on E. aerogenes CF153 it was 0.25 mg/L (≈ 0.321 µM); with E. cloacae 908R, 1 mg/L (≈ 1.28 µM); with E. cloacae 908SSi it was 8 mg/L (≈ 10.3 µM); against E. cloacae P99, 16 mg/L (≈ 20.5 µM); with E. coli 25922, less than 0.1 mg/L. Besides, the MIC in the assay on K. oxytoca 1082 is 2 mg/L (≈ 2.57 µM); in the assay with K. pneumoniae 418, 0.25 mg/L (≈ 0.321 µM); in the assay on P. aeruginosa 27853, 1 mg/L (≈ 1.28 µM); in the assay with P. aeruginosa 799/61 it was less than 0.1 mg/L; in the assay with P. aeruginosa 799/WT, 2 mg/L (≈ 2.57 µM); in the assay on P. aeruginosa BA, 2 mg/L (≈ 2.57 µM). Also, the MIC is 8 mg/L (≈ 10.3 µM) in the assay on P. aeruginosa MK1184; 0.5 mg/L (≈ 0.642 µM) with P. mirabilis 2117; 0.25 mg/L (≈ 0.321 µM) in the assay on P. vulgaris 1028; more than 32 mg/L with S. aureus 6538; 0.5 mg/L (≈ 0.642 µM) in the assay on S. marcescens 69438; 0.12 mg/L (≈ 0.154 µM) in the assay with S. pyogenes 15.
